Reference: US9193731B2, “Antimicrobial compounds and methods of making and using the same” (Melinta Therapeutics, Inc., priority 2009, dated 2015)

System: Escherichia coli strain ATCC25922
Assay: standard microdilution assay to determine minimum inhibitory concentrations (MICs)
Format: cell-based
Details: for E. coli ATCC25922 MIC: Escherichia coli strain ATCC25922, microdilution; for MIC: Escherichia coli, ATCC25922, Escherichia coli strain ATCC25922, microdilution, read-out: E. coli ATCC25922 MIC
Outline: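 E. coli strain ATCC25922 tested per CLSI microdilution methodology (about 100 microliters per well) to find minimum inhibitory concentrations. Activity scored categorically at a 16 micrograms/ml threshold.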

Row | SMILES | E. coli ATCC25922 MIC | MIC [µg/mL]
1 | N=C(N)NCCCNCc1ccc(-n2cc3cc(CCS(=O)(=O)N(CCC4CCCN4)C4CCNCC4)[nH]c3nc2=O)cc1 (centres unmarked) [Compound 991] | + (a “+” indicates that the compound has an MIC value of 16 micrograms/ml or less) | –
2 | N=C(N)NCCCNCc1ccc(-n2cc3cc(-c4ccsc4)[nH]c3nc2=O)cc1 [Compound 629] | – | < 16
3 | NCCCN(CCCN)Cc1ccc(-n2cc3cc(CCc4ccccc4)[nH]c3nc2=O)cc1 [Compound 183] | – | > 16
4 | N=C(N)NCCCNCc1ccc(-n2cc3cc(-c4cc(C(=O)NCC(F)F)cc(N5CCNCC5)c4)[nH]c3nc2=O)cc1 [Compound 970] | + (a “+” indicates that the compound has an MIC value of 16 micrograms/ml or less) | –
5 | NCCCNCc1ccc(-n2cc3cc(-c4ccc(S(=O)(=O)N(CC5COCCO5)C5CCCNC5)cc4)[nH]c3nc2=O)cc1 (centres unmarked) [Compound 846] | + (a “+” indicates that the compound has an MIC value of 16 micrograms/ml or less) | –
6 | CSCc1cc(OCC(F)CN)cc(-c2cc3cn(-c4ccc(CNCCCNC(=N)N)cc4)c(=O)nc3[nH]2)c1 (centres unmarked) [Compound 2049a] | + (a “+” indicates that the compound has an MIC value of 16 micrograms/ml or less) | –
7 | COc1ccccc1-c1nn2cc(-c3ccc(CNCCCN)cc3)c(=O)nc2[nH]1 [Compound 734] | – | > 16
8 | N=C(N)NCCCNCc1ccc(-n2cc3cc(-c4cccc(CCN5CCNCC5)c4)[nH]c3nc2=O)cc1 [Compound 1199] | – | < 16
9 | COCCOCCN(C1CCNCC1)S(=O)(=O)c1ccc(-c2cc3cn(-c4ccc(CNCCCNC(=N)N)cc4)c(=O)nc3[nH]2)cc1 [Compound 802] | + (a “+” indicates that the compound has an MIC value of 16 micrograms/ml or less) | –
10 | CSCCN(C1CCNCC1)S(=O)(=O)c1ccc(-c2cc3cn(-c4ccc(CN(CCCN)CCCN)cc4)c(=O)nc3[nH]2)cc1 [Compound 232] | – | < 16
11 | CNCc1ccc(-n2cc3cc(-c4ccc(S(=O)(=O)N(CCCC5CCCC5)C5CCNCC5)cc4)[nH]c3nc2=O)cc1 [Compound 947] | – | > 16
12 | N=C(N)NCCCNCc1ccc(-n2cc3cc(-c4ccc(S(=O)(=O)N(CCCn5cnnc5)C5CCNCC5)cc4)[nH]c3nc2=O)cc1 [Compound 856] | + (a “+” indicates that the compound has an MIC value of 16 micrograms/ml or less) | –
13 | N=C(N)NCCCNCc1ccc(-n2cc3cc(-c4ccc(S(=O)(=O)N(CCCC(N)=O)C5CCNCC5)cc4)[nH]c3nc2=O)cc1 [Compound 843] | + (a “+” indicates that the compound has an MIC value of 16 micrograms/ml or less) | –
14 | N=C(N)NCCCNCc1ccc(-n2cc3cc(-c4cccc(OCC5CNC5)c4)[nH]c3nc2=O)cc1 [Compound 1418] | + (a “+” indicates that the compound has an MIC value of 16 micrograms/ml or less) | –
15 | CC(=O)NCCc1cc(OCC(F)CN)cc(-c2cc3cn(-c4ccc(CNCCCNC(=N)N)cc4)c(=O)nc3[nH]2)c1 (centres unmarked) [Compound 2032a] | − (a “−” indicates that the compound has an MIC value greater than 16 micrograms/ml) | –
16 | N=C(N)NCCCNCc1ccc(-n2cc3cc(C4CCCN(Cc5cnc[nH]5)C4)[nH]c3nc2=O)cc1 (centres unmarked) [Compound 2003a] | − (a “−” indicates that the compound has an MIC value greater than 16 micrograms/ml) | –
17 | Cn1cc2cc(-c3ccc(C(=O)NC4CCNCC4)cc3)[nH]c2nc1=O [Compound 581] | – | > 16
18 | N=C(N)NCCCNCc1ccc(-n2cc3cc(C4CCCN(C(=O)CCCN)C4)[nH]c3nc2=O)cc1 (centres unmarked) [Compound 1406] | + (a “+” indicates that the compound has an MIC value of 16 micrograms/ml or less) | –

Row | SMILES | E. coli ATCC25922 MIC | MIC [µg/mL]
19 | NCc1ccc(-n2cc3cc(-c4cccc(S(=O)(=O)N(CCn5nccc5N)C5CCNCC5)c4)[nH]c3nc2=O)cc1 [Compound 1248] | – | > 16
20 | CN(CCc1ccccn1)C(=O)c1cc(-c2cc3cn(-c4ccc(CNCCCNC(=N)N)cc4)c(=O)nc3[nH]2)cc(N2CCNCC2)c1 [Compound 964] | − (a “−” indicates that the compound has an MIC value greater than 16 micrograms/ml) | –
21 | N=C(N)NCCCCN1CCC(n2cc3c(nc2=O)[nH]c2ccccc23)C1 (centres unmarked) [Compound 562, N-{4-[3-(2-oxo-2,9-dihydro-1,3,9-triaza-fluoren-3-yl)-pyrrolidine-1-yl]-butyl}-guanidine] | – | > 16
22 | Cc1cc(CNc2cn3cc(-c4ccc(CNCCCN)cc4)c(=O)nc3[nH]2)no1 [Compound 679] | – | > 16
23 | CNCc1ccc(-n2cc3cc(-c4ccc(S(=O)(=O)N(CCCN5CCOCC5)C5CCNCC5)cc4)[nH]c3nc2=O)cc1 [Compound 1037] | – | > 16
24 | NCCCNCc1ccc(-c2cn3nc(C4CC4)[nH]c3nc2=O)cc1 [Compound 646] | – | > 16
25 | N=C(N)NCCC(NCc1ccc(-n2cc3cc(-c4cc(CCCCN)cc(OC(F)(F)F)c4)[nH]c3nc2=O)cc1)C(F)(F)F (centres unmarked) [Compound 2078a] | + (a “+” indicates that the compound has an MIC value of 16 micrograms/ml or less) | –
26 | N=C(N)NCCCNCc1ccc(-n2cc3cc(-c4cc(CNc5cc(F)cc(F)c5)cc(N5CCNCC5)c4)[nH]c3nc2=O)cc1 [Compound 1043] | + (a “+” indicates that the compound has an MIC value of 16 micrograms/ml or less) | –
27 | N=C(N)NCCCNCc1ccc(-n2cc3cc(-c4cc(Cl)cc(CCCCN)c4)[nH]c3nc2=O)cc1 [Compound 2068a] | + (a “+” indicates that the compound has an MIC value of 16 micrograms/ml or less) | –
28 | N=C(N)NCCCOCc1ccc(-c2cn3cc(-c4ccc(C(=O)NC5CCNCC5)cc4)[nH]c3nc2=O)cc1 [Compound 928] | + (a “+” indicates that the compound has an MIC value of 16 micrograms/ml or less) | –
29 | N=C(N)NCCCNCc1ccc(-n2cc3cc(C4CCN(CCCN)C4)[nH]c3nc2=O)cc1 (centres unmarked) [Compound 1448] | + (a “+” indicates that the compound has an MIC value of 16 micrograms/ml or less) | –
30 | N=C(N)NCCCNCc1ccc(-n2cc3cc(-c4ccc(C(NC5CNC5)C(F)(F)F)cc4)[nH]c3nc2=O)cc1 (centres unmarked) [Compound 1431] | + (a “+” indicates that the compound has an MIC value of 16 micrograms/ml or less) | –
31 | CC(=O)NCCOc1cccc(-c2cc3cn(-c4ccc(CN)cc4)c(=O)nc3[nH]2)c1 [Compound 1143] | – | > 16
32 | NCc1ccc(-n2cc3cc[nH]c3nc2=O)cc1 [Compound 142] | – | > 16
33 | N=C(N)NCCCNCc1ccc(-n2cc3cc(C4CN(CCCCN)CCO4)[nH]c3nc2=O)cc1 (centres unmarked) [Compound 1381] | + (a “+” indicates that the compound has an MIC value of 16 micrograms/ml or less) | –
34 | CN(C)CCCOc1cccc(-c2cc3cn(-c4ccc(CNC(=O)CCNC(=N)N)cc4)c(=O)nc3[nH]2)c1 [Compound 1202] | – | > 16
35 | COCCOCCc1cc(OCC(F)CN)cc(-c2cc3cn(-c4ccc(CNCCCNC(=N)N)cc4)c(=O)nc3[nH]2)c1 (centres unmarked) [Compound 2035a] | − (a “−” indicates that the compound has an MIC value greater than 16 micrograms/ml) | –
